US8748602B2, “Polymorphs of erlotinib hydrochloride and method of preparation” (Natco Pharma Limited, priority 2007, dated 2014)
Structures can show the parent of a compound that is named as a salt.

Assays:
[1] = solid state stability of the polymorphic forms; format: physicochemical
[2] = compared with polymorphic Form A; cited from earlier work

SMILES | stability in the solid state ([1]; higher temperatures of the order of 60°-120° C.) | stability in the solid state ([1]; room temperature (30°-35° C.)) | thermodynamic stability [2]
C#Cc1cccc(Nc2ncnc3cc(OCCOC)c(OCCOC)cc23)c1.Cl [Form-M, Erlotinib Hydrochloride] | very stable | very stable | –
C#Cc1cccc(Nc2ncnc3cc(OCCOC)c(OCCOC)cc23)c1 [Form-B, Erlotinib HCl] | – | – | thermodynamically more stable
